Where only a bound is given, the exact number is not on record here.

The record followed here is patent US20220332695A1, “UREA DERIVATIVES AS CB1 ALLOSTERIC MODULATORS” (RTI INTERNATIONAL, priority 2019, published 2022).

hCB1R, sequence (P21554 whole entry): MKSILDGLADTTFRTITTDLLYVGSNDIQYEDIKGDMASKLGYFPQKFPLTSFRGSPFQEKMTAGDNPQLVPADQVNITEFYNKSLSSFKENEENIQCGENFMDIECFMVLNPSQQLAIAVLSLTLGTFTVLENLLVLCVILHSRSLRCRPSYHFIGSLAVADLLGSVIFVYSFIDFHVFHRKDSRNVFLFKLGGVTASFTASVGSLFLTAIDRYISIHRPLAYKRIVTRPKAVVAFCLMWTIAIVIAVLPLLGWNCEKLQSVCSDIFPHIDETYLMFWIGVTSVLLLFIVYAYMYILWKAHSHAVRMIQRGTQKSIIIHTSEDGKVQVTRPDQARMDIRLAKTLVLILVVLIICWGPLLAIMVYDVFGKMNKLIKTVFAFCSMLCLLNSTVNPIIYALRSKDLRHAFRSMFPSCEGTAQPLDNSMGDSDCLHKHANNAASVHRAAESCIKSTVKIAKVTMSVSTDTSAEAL

The target of one assay is T1, mouse CB1R (Mus musculus, UniProt P47746).
T1 construct: membranes (10 μg protein) from either ICR mouse cerebellum mice; from tissue; host or cells: cerebellum membranes of ICR mice
T1 sequence (P47746 whole entry): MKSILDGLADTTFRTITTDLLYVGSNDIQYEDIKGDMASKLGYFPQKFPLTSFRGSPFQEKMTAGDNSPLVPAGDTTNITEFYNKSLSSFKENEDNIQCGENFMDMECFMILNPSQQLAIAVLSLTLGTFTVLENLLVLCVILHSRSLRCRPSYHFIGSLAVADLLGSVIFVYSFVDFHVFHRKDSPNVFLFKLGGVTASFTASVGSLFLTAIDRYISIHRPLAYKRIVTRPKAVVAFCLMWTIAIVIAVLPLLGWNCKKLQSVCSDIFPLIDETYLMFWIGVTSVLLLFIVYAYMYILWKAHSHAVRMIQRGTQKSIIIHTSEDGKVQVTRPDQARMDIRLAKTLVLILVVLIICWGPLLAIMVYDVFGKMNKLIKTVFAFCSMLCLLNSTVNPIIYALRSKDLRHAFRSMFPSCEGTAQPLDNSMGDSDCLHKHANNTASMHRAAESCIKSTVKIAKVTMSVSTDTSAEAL
Put plainly: [35S]GTPγS binding assay in mouse cerebellum membranes.
Conditions: not given
The class given is biochemical. Background: GTPγS resists hydrolysis and so accumulates on activated G proteins.
Turning to `CN(C)c1cccc(CCNC(=O)Nc2ccc(Cl)cc2)c1` [Compound 50, 3-(4-Chlorophenyl)-1-{2-[3-(dimethylamino)phenyl]ethyl}urea], the IC50 (usually the concentration needed to halve the response being measured) is 592 nM.
On the same count and under the same terms, as for `CN(C)c1ccc(CCNC(=O)Nc2ccc(Cl)cc2)cc1` [Compound 51, 3-(4-Chlorophenyl)-1-{2-[4-(dimethylamino)phenyl]ethyl}urea], the figure is 1590 nM.

The same assay, now with this note: Tables 4-6; CP55,940 concentration not stated; mean (95% confidence interval); read-out: mCB1R [35S]GTPγS binding assay IC50.
As to “3-(4-Chlorophenyl)-1-[2-(3-methoxyphenyl)ethyl]urea [Compound 55]”, the half-inhibitory concentration (IC50) stood at 3720 nM.
On the same count and under the same terms, the value for `O=C(NCCc1ccc([N+](=O)[O-])cc1)Nc1ccc(Cl)cc1` [Compound 48, 3-(4-Chlorophenyl)-1-[2-(4-nitrophenyl)ethyl]urea] was 780 nM.

The next assay has as its target hCB1R (Homo sapiens, UniProt P21554). Put plainly: Calcium mobilization assay, antagonist mode against CP55,940. Also on record: expressed in transfected cells; host or cells: CHO-RD-HGA16 cells (parental line from Molecular Devices). Format: cell-based.
Conditions: not given
(A change in cytosolic calcium serves as a functional read-out for many receptors and channels.)
As to `O=C(NCCc1ccccc1)Nc1ccc(Cl)cc1` [Compound 44, 3-(4-Chlorophenyl)-1-(2-phenylethyl)urea], the IC50 was found to be 193 ± 35 nM.
On the same count and under the same terms, as for `CC(C)(C)c1ccc(CCNC(=O)Nc2ccc(Cl)cc2)cc1` [Compound 45, 1-[2-(4-tert-Butylphenyl)ethyl]-3-(4-chlorophenyl)urea], the figure is 573 ± 105 nM; as for `O=C(NCCc1ccc(-c2ccccc2)cc1)Nc1ccc(Cl)cc1` [Compound 46, 3-(4-Chlorophenyl)-1-[2-(4-phenylphenyl)ethyl]urea], 897 ± 167 nM.
For the molecule `O=C(NCCc1ccc([N+](=O)[O-])cc1)Nc1ccc(Cl)cc1` [Compound 48, 3-(4-Chlorophenyl)-1-[2-(4-nitrophenyl)ethyl]urea], the IC50 worked out at 87 ± 12 nM.
For `COc1cc(CCNC(=O)Nc2ccc(Cl)cc2)ccc1O` [Compound 49, 3-(4-Chlorophenyl)-1-[2-(4-hydroxy-3-methoxyphenyl)ethyl]urea], the half-maximal inhibitory concentration (IC50) was more than 10000 nM.
For `CN(C)c1cccc(CCNC(=O)Nc2ccc(Cl)cc2)c1` [Compound 50, 3-(4-Chlorophenyl)-1-{2-[3-(dimethylamino)phenyl]ethyl}urea], the IC50 came to 1680 ± 284 nM.
On the same count and under the same terms, the value for `CN(C)c1ccc(CCNC(=O)Nc2ccc(Cl)cc2)cc1` [Compound 51, 3-(4-Chlorophenyl)-1-{2-[4-(dimethylamino)phenyl]ethyl}urea] was 323 ± 88 nM; that for `CS(=O)(=O)c1ccc(CCNC(=O)Nc2ccc(Cl)cc2)cc1` [Compound 52, 3-(4-Chlorophenyl)-1-[2-(4-methanesulfonylphenyl)ethyl]urea] was more than 10000 nM.
In the case of `COc1ccccc1CCNC(=O)Nc1ccc(Cl)cc1` [Compound 53, 3-(4-Chlorophenyl)-1-[2-(2-methoxyphenyl)ethyl]urea], the IC50 was determined as 1620 ± 248 nM.
On to `COc1cccc(CCNC(=O)Nc2ccc(Cl)cc2)c1` [Compound 54, 3-(4-Chlorophenyl)-1-[2-(3-methoxyphenyl)ethyl]urea], for which the IC50 is 485 ± 93 nM.
As to `COc1ccc(CCNC(=O)Nc2ccc(Cl)cc2)cc1OC` [Compound 56, 3-(4-Chlorophenyl)-1-[2-(3,4-dimethoxyphenyl)ethyl]urea], the IC50 stood at 1860 ± 319 nM.
As to `O=C(NCCc1ccc(O)cc1)Nc1ccc(Cl)cc1` [Compound 58, 3-(4-Chlorophenyl)1-[2-(4-hydroxyphenyl)ethyl]urea], the IC50 was more than 10000 nM.
Turning to `Cc1ccc(CCNC(=O)Nc2ccc(Cl)cc2)cc1` [Compound 59, 3-(4-Chlorophenyl)1-[2-(4-methylphenyl)ethyl]urea], the IC50 came out at 137 ± 21 nM.
Turning to `O=C(NCCc1ccccc1F)Nc1ccc(Cl)cc1` [Compound 61, 3-(4-Chlorophenyl)1-[2-(2-fluorophenyl)ethyl]urea], the IC50 was 174 ± 27 nM.
On to `O=C(NCCc1ccc(F)cc1)Nc1ccc(Cl)cc1` [Compound 63, 3-(4-Chlorophenyl)1-[2-(4-fluorophenyl)ethyl]urea], for which the IC50 is 108 ± 19 nM.
Same read-out and setting: as for `O=C(NCCc1ccc(F)c(F)c1)Nc1ccc(Cl)cc1` [Compound 64, 3-(4-Chlorophenyl)-1-[2-(3,4-difluorophenyl)ethyl]urea], the figure is 47 ± 5 nM; as for `O=C(NCCc1c(F)cc(F)cc1F)Nc1ccc(Cl)cc1` [Compound 65, 3-(4-Chlorophenyl)-1-[2-(2,4,6-trifluorophenyl)ethyl]urea], 81 ± 9 nM.
Still for that read-out and setting: the value for `O=C(NCCc1c(F)c(F)c(F)c(F)c1F)Nc1ccc(Cl)cc1` [Compound 66, 3-(4-Chlorophenyl)1-[2-(2,3,4,5,6-pentafluorophenyl)ethyl]urea] was 34 ± 7 nM; that for `O=C(NCCc1ccccc1Cl)Nc1ccc(Cl)cc1` [Compound 67, 3-(4-Chlorophenyl)1-[2-(2-chlorophenyl)ethyl]urea] was 237 ± 35 nM.
As for `O=C(NCCc1ccc(Cl)cc1Cl)Nc1ccc(Cl)cc1` [Compound 69, 3-(4-Chlorophenyl)1-[2-(2,4-dichlorophenyl)ethyl]urea], the IC50 worked out at 174 ± 34 nM.
On the same count and under the same terms, as for `O=C(NCCc1c(F)cccc1Cl)Nc1ccc(Cl)cc1` [Compound 70, 3-(4-Chlorophenyl)1-[2-(2-chloro-6-fluorophenyl)ethyl]urea], the figure is 408 ± 66 nM.
As for `O=C(NCCc1ccc(Br)cc1)Nc1ccc(Cl)cc1` [Compound 71, 3-(4-Chlorophenyl)1-[2-(4-bromophenyl)ethyl]urea], the IC50 was determined as 151 ± 20 nM.
On the same count and under the same terms, as for `N#Cc1ccc(CCNC(=O)Nc2ccc(Cl)cc2)cc1` [Compound 72, 3-(4-Chlorophenyl)1-[2-(4-cyanophenyl)ethyl]urea], the figure is 443 ± 53 nM; as for `O=C(NCCc1ccccc1C(F)(F)F)Nc1ccc(Cl)cc1` [Compound 73, 3-(4-Chlorophenyl)-1-{2-[2-(trifluoromethyl)phenyl]ethyl}urea], 143 ± 34 nM; as for `O=C(NCCc1ccc(C(F)(F)F)cc1)Nc1ccc(Cl)cc1` [Compound 75, 3-(4-Chlorophenyl)-1-{2-[4-(trifluoromethyl)phenyl]ethyl}urea], 194 ± 38 nM.

Still in this assay, the particulars now being: CHO cells expressing human CB1R; against CP55,940 (100 nM); mean ± SEM; read-out: hCB1R Calcium assay IC50.
On to “3-(4-Chlorophenyl)-1-[2-(3-methoxyphenyl)ethyl]urea [Compound 55]”, for which the IC50 came to 228 ± 45 nM.
On the same count and under the same terms, as for `O=C(NC[C@@H]1C[C@H]1c1ccccc1)Nc1ccc(Cl)cc1` (relative stereo) [Compound 43, trans-1-(4-Chlorophenyl)-3-[(2-phenylcyclopropyl)methyl]urea], the figure is 2610 ± 548 nM; as for `O=C(NCCCc1ccccc1)Nc1ccc(Cl)cc1` [Compound 37, 3-(4-Chlorophenyl)-1-(3-phenylpropyl)urea], 3700 ± 481 nM.
As to `O=C(NCC(F)(F)c1ccccc1)Nc1ccc(Cl)cc1` [Compound 39, 3-(4-Chlorophenyl)-1-(2,2-difluoro-2-phenylethyl)urea], the half-maximal inhibitory concentration (IC50) amounted to 1580 ± 328 nM.
Same read-out and setting: as for `O=C(NCC1(c2ccccc2)CC1)Nc1ccc(Cl)cc1` [Compound 41, 1-(4-Chlorophenyl)-3-[(1-phenylcyclopropyl)methyl]urea], the figure is 5160 ± 1150 nM; as for `O=C(NCCc1ccncc1)Nc1ccc(Cl)cc1` [Compound 76, 3-(4-Chlorophenyl)-1-[2-(pyridin-4-yl)ethyl]urea], more than 10000 nM.
With `O=C(NCCc1cccnc1)Nc1ccc(Cl)cc1` [Compound 77, 3-(4-Chlorophenyl)-1-[2-(pyridin-3-yl)ethyl]urea], the IC50 was more than 10000 nM.
Same read-out and setting: as for `O=C(NCCc1ccccn1)Nc1ccc(Cl)cc1` [Compound 78, 3-(4-Chlorophenyl)-1-[2-(pyridin-2-yl)ethyl]urea], the figure is 3630 ± 687 nM.
The same measure, in the same setting: as for `CN1CCN(CCNC(=O)Nc2ccc(Cl)cc2)CC1` [Compound 80, 3-(4-Chlorophenyl)-1-[2-(4-methylpiperazin-1-yl)ethyl]urea], the figure is more than 10000 nM.
Same read-out and setting: the value for `O=C(NCCN1CCCCC1)Nc1ccc(Cl)cc1` [Compound 81, 3-(4-Chlorophenyl)-1-[2-(piperidin-1-yl)ethyl]urea] was more than 10000 nM; that for `O=C(NCCN1CCOCC1)Nc1ccc(Cl)cc1` [Compound 82, 3-(4-Chlorophenyl)-1-[2-(morpholin-4-yl)ethyl]urea] was more than 10000 nM.
`O=C(NCCN1CCCC1)Nc1ccc(Cl)cc1` [Compound 83, 1-(4-Chlorophenyl)-3-[2-(pyrrolidin-1-yl)ethyl]urea]: the IC50 is more than 10000 nM.
Still for that read-out and setting: as for `CC(=O)NCCNC(=O)Nc1ccc(Cl)cc1` [Compound 84, N-(2-{[(4-Chlorophenyl)carbamoyl]amino}ethyl)acetamide], the figure is 1830 ± 362 nM.
